Legend:
[1] = system: PAF-Induced Bronchoconstriction; experiment: PAF Induced Bronchoconstriction Assay; type: in vivo, guinea pig; details: for inhibition in vivo at 50 mg/kg: Cavia porcellus, po, 2-hour pretreatment, read-out: Percent Inhib. of PAF-Induced Bronchoconstriction, 50 mg/Kg p.o.; for inhibition in vivo at 50 mg/kg / Percent Inhib. of PAF-Induced Bronchoconstriction, 50 mg/Kg p.o. (6 hr) / Percent Inhib. of PAF-Induced Bronchoconstriction, 50 mg/Kg p.o. (8 hr): 50 mg/Kg p.o.; for Percent Inhib. of PAF-Induced Bronchoconstriction, mg/Kg i.v.: i.v. (dose not given), 1 minute pretreatment, PAF 1.0 μg/kg i.v.
Description: PAF Induced Bronchoconstriction Assay
Male animals (Hartlet Strain 400-500 g) were anesthetized with urethane (2 g/kg. i.p.). Each animals' trachea was cannulated and the guinea pigs were repirated using a Harvard small animal rodent respirator (3.0 cc stroke volume, 40 breaths per min.). Tracheal pressure was recorded from a cannula inserted in the trachea and connected to a Statham Pressure Transducer.
The jugular vein was cannulated for administering compounds. Spontaneous breathing was arrested with succinylcholine (1.2 mg/kg. i.v.) administered 2 minutes prior to intravenous injection of platelet activating factor (PAF).
For, the intravenous testing, the guinea pig is given a 5-minute pretreatment with propranolol at a dose of 0.1 mg/kg intravenously. The test compound is administered with a 1 minute pretreatment prior to intravenous challenge with PAF. The animal is than challenged with a 1.0 μg/kg intravenous dose of PAF and the change is tracheal pressure is measured.
For the oral testing, the procedure includes a 2-hour pretreatment period with the test compound administered through an oral gavage tube. Propranolol or succinylcholine and PAF are administered intravenously, and the change in tracheal pressure measured.
The change is tracheal pressure is determined by subtracting the steady state baseline achieved after administration of succinylcholine from the peak bronchoconstriction seen after challenge with PAF. The mean is calculated for each test compound and compared to the mean of the control animals to give the percent inhibition of bronchoconstriction. The standard error is calcuated as the standard error of the mean.

[2] = biological target: T1, PAF Binding, dog platelets (Canis lupus familiaris, UniProt A0A8I3NSH0); experiment: PAF Binding Assay (inhibition of 3H-PAF binding to washed dog platelets); details: dog platelets, 3H-PAF, 10 minutes at room temperature; read-out: Inhib of PAF Binding IC50
T1 construct: Washed platelets were prepared by resuspending the platelet pellet once with PBS containing 1 mM EDTA; from tissue; host or cells: washed platelets from dog blood
T1 sequence (A0A8I3NSH0 1-343): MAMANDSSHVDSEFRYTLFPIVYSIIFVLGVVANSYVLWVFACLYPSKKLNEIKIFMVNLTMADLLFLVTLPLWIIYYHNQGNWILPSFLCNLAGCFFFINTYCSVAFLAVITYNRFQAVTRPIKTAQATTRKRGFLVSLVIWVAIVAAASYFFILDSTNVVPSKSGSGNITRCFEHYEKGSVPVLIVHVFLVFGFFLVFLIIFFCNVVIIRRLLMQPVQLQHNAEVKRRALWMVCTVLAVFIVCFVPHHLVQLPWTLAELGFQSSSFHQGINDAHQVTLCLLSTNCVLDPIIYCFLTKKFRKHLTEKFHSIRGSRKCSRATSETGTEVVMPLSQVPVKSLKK
Description: The binding assay was done in 400 μl polyethylene microcentrifuge tubes (Beckman) containing 50 μl of an oil mixture of 2 parts Siliconol AR200 (Serva): 1 part Silicone Fluid (Arthur H. Thomas). Buffer, standards, or analogs (150 μl total volume) were added to the tubes. Radiolabelled ^3 H-PAF (50 μl) was then added to the tubes. The reaction was started by the addition of 50 μl of dog platelets (2×10^7 platelets). The tubes were capped, inverted several times to mix, and incubated for 10 minutes at room temperature. The platelets were separated from the incubation mixture by centrifuging 1 minute in a Beckman Microfuge B centrifuge. The tip of the microfuge tube was cut off, and the platelets were washed out of the tip with 200 μl of 50% methanol (Burdick and Jackson). Aquasol (NEN, 10 ml) was added and the radioactivity in the samples was determined using an LS 8100 Beckman liquid scintillation counter linked to a Techtran tape recorder. Data was processed through an in-house computer system. Alternatively, radioactivity was determined using a Searle Mark III liquid scintillation counter linked to a Iso-Data microprocessor.
(b) Preparation of Platelets
Blood was collected from anesthesized or unanesthesized dogs into 50 ml plastic centrifuge tubes containing 3.8% sodium citrate as the anticoagulant (1 volume of citrate/9 volumes of blood). The red cells were removed by centrifugation for 15 minutes at 600 rpm (100-125 g) at room temperature. An aliquot of the supernatant platelet rich plasma (PRP) was saved for cell counting and the remainder was acidified to PH 6.5 with 0.15M citric acid. The platelet pellet was obtained after a 10 minute centrifugation at 2000 rpm (1000 g) at room temperature. Washed platelets were prepared by resuspending the platelet pellet once with PBS containing 1 mM EDTA, centrifuging as noted, and then resuspending the platelets in 0.1% BSA-PBS. An aliquot of the washed platelets was counted. Platelets used for binding assays were diluted to 2×10^7 platelets/assay tube (4×10^8 platelets/ml). Platelet counting was done using a Royco Cell-Crit 921.

| Compound | inhibition in vivo at 50 mg/kg [1] [%] | Percent Inhib. of PAF-Induced Bronchoconstriction, mg/Kg i.v. [1] [%] | IC50 [2] [nM] | Percent Inhib. of PAF-Induced Bronchoconstriction, 50 mg/Kg p.o. (6 hr) [1] [%] | Percent Inhib. of PAF-Induced Bronchoconstriction, 50 mg/Kg p.o. (8 hr) [1] [%] |
| --- | --- | --- | --- | --- | --- |
| COc1ccc(/C(=C\C=C\C(=O)N[C@H](C)CCCc2cccnc2)C(C)C)cc1 [[R-(2E,4Z)]-5-(4-methoxyphenyl)-6-methyl-N-[1-methyl-4-(3-pyridinyl)butyl]-2,4-heptadienamide] | 71 ± 14 | 89 ± 3 | 40 |  |  |
| COc1ccc(/C(=C/C=C/C(=O)N[C@H](C)CCCc2cccnc2)c2cccs2)cc1 [[R-(2E,4Z)]-5-(4-methoxyphenyl)-N-[1-methyl-4-(3-pyridinyl)butyl]-5-(2-thienyl)-2,4-pentadienamide] | 96 ± 2 | 97 ± 1 | 16 | 27 ± 6 |  |
| COc1ccc(/C(=C\C=C\C(=O)N[C@H](C)CCCc2cccnc2)C2CC2)cc1 [[R-(2E,4Z)]-5-cyclopropyl-5-(4-methoxyphenyl)-N-1-methyl-4-(3-pyridinyl)butyl]-2,4-pentadienamide] | 63 ± 19 | 85 ± 4 | 70 |  |  |
| COc1ccc(C(=C/C=C/C(=O)N[C@H](C)CCCc2cccnc2)c2ccc(OC)c(OC)c2)cc1OC [[R-(E)]-5,5-bis(3,4-dimethoxyphenyl)-N-[1-methyl-4-(3-pyridinyl)butyl]-2,4-pentadienamide] | 66 ± 19 | 99 ± 1 | 50 |  |  |
| Cc1ccc(C(=C/C=C/C(=O)N[C@H](C)CCCc2cccnc2)c2ccc(C)cc2)cc1 [[R-(E)]-5,5-bis(4-methylphenyl)-N-[1-methyl-4-(3-pyridinyl)butyl]-2,4-pentadienamide] | 91 ± 7 | 97 ± 3 | 250 |  | 14 ± 16 |
| CC[C@H](CCCc1cccnc1)NC(=O)/C=C/C=C(c1ccc(OC)cc1)c1ccc(OC)cc1 [[R-(E)]-N-[1-ethyl-4-(3-pyridinyl)butyl]-5,5-bis(4-methoxyphenyl)-2,4-pentadienamide] | 99 ± 1 | 99 ± 0.4 | 120 |  | 85 ± 12 |
| CCCCCC(=C/C=C/C(=O)N[C@H](C)CCCc1cccnc1)CCCCC [[R-(E)]-N-[1-methyl-4-(3-pyridinyl)butyl]-5-pentyl-2,4-decadienamide] | 4 ± 4 | 78 ± 7 | 100 |  |  |
| CCCCC/C(=C\C=C\C(=O)N[C@H](C)CCCc1cccnc1)c1ccc(OC)c(OC)c1 [[R-(E,E)]-5-(3,4-dimethoxyphenyl)-N-[1-methyl-4-(3-pyridinyl)butyl]-2,4-decadienamide] |  | 99 ± 0.4 | 6 |  |  |
| CCCCC/C(=C\C=C\C(=O)N[C@H](C)CCCc1cccnc1)c1cccc(F)c1 [[R-(E,E)]-5-(3-fluorophenyl)-N-[1-methyl-4-(3-pyridinyl)butyl]-2,4-decadienamide] |  | 93 ± 0.9 | 30 |  |  |
| CCCC/C(=C\C=C\C(=O)N[C@H](C)CCCc1cccnc1)c1cccc(OC)c1 [[R-(E,E)]-5-(3-methoxyphenyl)-N-[1-methyl-4-(3-pyridinyl)butyl]-2,4-nonadienamide] |  | 91 ± 5 | 15 |  |  |
| CCCCC/C(=C\C=C\C(=O)N[C@H](C)CCCc1cccnc1)c1ccc(F)cc1 [[R-(E,E)]-5-(4-fluorophenyl)-N-[1-methyl-4-(3-pyridinyl)butyl]-2,4-decadienamide] |  | 95 ± 1 | 40 |  |  |
| COc1ccc(/C(=C/C=C/C(=O)N[C@H](C)CCCc2cccnc2)C(C)C)cc1 [[R-(E,E)]-5-(4-methoxyphenyl)-6-methyl-N-[1-methyl-4-(3-pyridinyl)butyl]-2,4-heptadienamide] |  | 38 ± 11 | 30 |  |  |
| CCCCCCCCCCCC/C(=C\C=C\C(=O)N[C@H](C)CCCc1cccnc1)c1ccc(OC)cc1 [[R-(E,E)]-5-(4-methoxyphenyl)-N-[1-methyl-4-(3-pyridinyl)butyl]-2,4-heptadecadienamide] |  | 28 ± 2 | 45 |  |  |
| CC/C(=C\C=C\C(=O)N[C@H](C)CCCc1cccnc1)c1ccc(OC)cc1 [[R-(E,E)]-5-(4-methoxyphenyl)-N-[1-methyl-4-(3-pyridinyl)butyl]-2,4-heptadienamide] | 84 ± 2 | 72 ± 13 | 30 |  |  |
| COc1ccc(/C(C)=C/C=C/C(=O)N[C@H](C)CCCc2cccnc2)cc1 [[R-(E,E)]-5-(4-methoxyphenyl)-N-[1-methyl-4-(3-pyridinyl)butyl]-2,4-hexadienamide] |  | 42 ± 16 | 25 |  |  |
| CCCC/C(=C\C=C\C(=O)N[C@H](C)CCCc1cccnc1)c1ccc(OC)cc1 [[R-(E,E)]-5-(4-methoxyphenyl)-N-[1-methyl-4-(3-pyridinyl)butyl]-2,4-nonadienamide] | 98 ± 1 | 99 ± 1 | 14 |  |  |
| CCC/C(=C\C=C\C(=O)N[C@H](C)CCCc1cccnc1)c1ccc(OC)cc1 [[R-(E,E)]-5-(4-methoxyphenyl)-N-[1-methyl-4-(3-pyridinyl)butyl]-2,4-octadienamide] | 9 ± 13 | 86 ± 7 | 50 |  |  |
| COc1ccc(/C=C/C=C/C(=O)N[C@H](C)CCCc2cccnc2)cc1 [[R-(E,E)]-5-(4-methoxyphenyl)-N-[1-methyl-4-(3-pyridinyl)butyl]-2,4-pentadienamide] |  | 17 ± 13 | 30 |  |  |
| CCCCCCCC/C(=C\C=C\C(=O)N[C@H](C)CCCc1cccnc1)c1ccc(OC)cc1 [[R-(E,E)]-5-(4-methoxyphenyl)-N-[1-methyl-4-(3-pyridinyl)butyl]-2,4-tridecadienamide] | 84 ± 8 | 98 ± 1 | 5 |  |  |
| CCCCCC/C(=C\C=C\C(=O)N[C@H](C)CCCc1cccnc1)c1ccc(OC)cc1 [[R-(E,E)]-5-(4-methoxyphenyl)-N-[1-methyl-4-(3-pyridinyl)butyl]-2,4-undecadienamide] | 96 ± 1 | 100 ± 1 | 9 |  |  |
| COc1ccc(/C(=C/C=C/C(=O)N[C@H](C)CCCc2cccnc2)C2CCCCC2)cc1 [[R-(E,E)]-5-cyclohexyl-5-(4-methoxyphenyl)-N-[1-methyl-4-(3-pyridinyl)butyl]-2,4-pentadienamide] | 97 ± 1 | 73 ± 17 | 20 | 12 ± 10 |  |
